Converted amounts (≈) assume the structure as drawn. Where two headings read alike, the source gives them in different places.
Legend:
[1] = test system: Acinetobacter baumannii NCTC 13420; test: MIC, broth microdilution (CLSI) versus planktonic bacteria; assay type: cell-based; settings: Acinetobacter baumannii NCTC 13420, 16-20 h, mode of three independent experiments; for MIC: NCTC13420, read-out: MIC, Ab NCTC 13420
[2] = test system: Acinetobacter baumannii ATCC 19606; test: as above; assay type: cell-based; settings: Acinetobacter baumannii ATCC 19606, 16-20 h, mode of three independent experiments; for MIC: ATCC19606, read-out: MIC, Ab ATCC 19606
[3] = test system: Enterobacter cloacae NCTC 13406; test: as above; assay type: cell-based; settings: Enterobacter cloacae NCTC 13406, 16-20 h, mode of three independent experiments; for MIC: NCTC13406, read-out: MIC, Ecl NCTC 13406
[4] = test system: Escherichia coli ATCC 25922; test: as above; assay type: cell-based; settings: Escherichia coli ATCC 25922, 16-20 h, mode of three independent experiments; for MIC: ATCC25922, read-out: MIC, Ec ATCC 25922
E. coli ATCC BAA-2452 = test: as above; assay type: cell-based; settings: Escherichia coli ATCC BAA-2452, 16-20 h, mode of three independent experiments; for MIC: read-out: MIC, Ec ATCC BAA 2452
E. coli NCTC 13476 = test: as above; assay type: cell-based; settings: Escherichia coli NCTC 13476, 16-20 h, mode of three independent experiments; for MIC: NCTC13476, read-out: MIC, Ec NCTC 13476
E. coli MG1655 = test: as above; assay type: cell-based, Escherichia coli; settings: for MIC: Escherichia coli, MG1655, read-out: MIC, Ec MG1655 WT
[5] = test system: Haemophilus influenzae ATCC 49247; test: as above; assay type: cell-based; settings: Haemophilus influenzae ATCC 49247, 16-20 h, mode of three independent experiments; for MIC: ATCC49247, read-out: MIC, Hi ATCC 49247
[6] = test system: Pseudomonas aeruginosa ATCC 27853; test: as above; assay type: cell-based; settings: Pseudomonas aeruginosa ATCC 27853, 16-20 h, mode of three independent experiments; for MIC: ATCC27853, read-out: MIC, Pa ATCC 27853
[7] = test system: Staphylococcus aureus ATCC 29213; test: as above; assay type: cell-based; settings: Staphylococcus aureus ATCC 29213, 16-20 h, mode of three independent experiments; for MIC: ATCC29213, read-out: MIC, Sa ATCC 29213
[8] = test system: Streptococcus pneumoniae ATCC 49619; test: as above; assay type: cell-based; settings: Streptococcus pneumoniae ATCC 49619, 16-20 h, mode of three independent experiments; for MIC: ATCC49619, read-out: MIC, Sp ATCC 49619
E. coli MG1655 S83L = assay type: cell-based, Escherichia coli
E. coli MG1655 D87G = assay type: cell-based, Escherichia coli
[9] = test system: human hepatic cell line (HepG2 ATCC HB-8065); test: Human cell viability assay (CellTiter-Glo); settings: for IC50: Homo sapiens, HepG2, 24 h, read-out: IC50 (μg/mL) HepG2
[10] = compared to the isogenic parent strain E. coli MG1655, S83L mutation on DNA gyrase subunit GyrA
[11] = compared to the isogenic parent strain E. coli MG1655, D87G mutation on DNA gyrase subunit GyrA

| Molecule | MIC [1] | MIC [2] | MIC [3] | MIC [4] | MIC (E. coli ATCC BAA-2452) | MIC (E. coli NCTC 13476) | MIC (E. coli MG1655) | MIC [5] | MIC [6] | MIC [7] | MIC [8] | Fold increase in MIC, E. coli MG1655 S83L (E. coli MG1655 S83L; [10]) | Fold increase in MIC, E. coli MG1655 D87G (E. coli MG1655 D87G; [11]) | IC50 [9] | also measured |
| --- | --- | --- | --- | --- | --- | --- | --- | --- | --- | --- | --- | --- | --- | --- | --- |
| N#Cc1ccc2ncc(=O)n(CCN[C@@H]3CC[C@@H]4[C@@H](C3)OC(=O)N4c3ccc4c(n3)NC(=O)CO4)c2c1 [Compound 68, 4-(2-{[(3aR,6R,7aR)-2-oxo-3-{3-oxo-2H,3H,4H-pyrido[3,2-b][1,4]oxazin-6-yl}-octahydro-1,3-benzoxazol-6-yl]amino}ethyl)-3-oxo-3,4-dihydroquinoxaline-6-carbonitrile] | < 1 µg/mL | < 1 µg/mL | < 1 µg/mL | < 1 µg/mL | < 1 µg/mL | < 1 µg/mL | < 1 µg/mL | < 1 µg/mL | 1 to 10 µg/mL (≈ 1.99 to 19.9 µM) | < 1 µg/mL | < 1 µg/mL | 1 fold | 1 fold | 10 to 100 µg/mL (≈ 19.9 to 199 µM) |  |
| N#Cc1ccc2ncc(=O)n(CCN[C@H]3CC[C@H]4[C@H](C3)OC(=O)N4c3ccc4c(n3)NC(=O)CO4)c2c1 [Compound 64, 4-(2-{[(3aS,6S,7aS)-2-oxo-3-{3-oxo-2H,3H,4H-pyrido[3,2-b][1,4]oxazin-6-yl}-octahydro-1,3-benzoxazol-6-yl]amino}ethyl)-3-oxo-3,4-dihydroquinoxaline-6-carbonitrile] | < 1 µg/mL | 1 to 10 µg/mL (≈ 1.99 to 19.9 µM) | < 1 µg/mL | < 1 µg/mL | < 1 µg/mL | 1 to 10 µg/mL (≈ 1.99 to 19.9 µM) | < 1 µg/mL | < 1 µg/mL | 1 to 10 µg/mL (≈ 1.99 to 19.9 µM) | < 1 µg/mL | < 1 µg/mL | 0.5 fold | 1 fold | 10 to 100 µg/mL (≈ 19.9 to 199 µM) |  |
| COc1cnc2ccc(=O)n(CCCN[C@H]3CC[C@H]4[C@H](C3)OC(=O)N4c3ccc4c(n3)NC(=O)CO4)c2c1 [Compound 99, 1-(3-{[(3aS,6S,7aS)-2-oxo-3-{3-oxo-2H,3H,4H-pyrido[3,2-b][1,4]oxazin-6-yl}-octahydro-1,3-benzoxazol-6-yl]amino}propyl)-7-methoxy-1,2-dihydro-1,5-naphthyridin-2-one] | < 1 µg/mL | 1 to 10 µg/mL (≈ 1.92 to 19.2 µM) | 1 to 10 µg/mL (≈ 1.92 to 19.2 µM) | < 1 µg/mL | < 1 µg/mL | < 1 µg/mL | < 1 µg/mL | < 1 µg/mL | 1 to 10 µg/mL (≈ 1.92 to 19.2 µM) | < 1 µg/mL | < 1 µg/mL | 0.5 fold | 1 fold | 10 to 100 µg/mL (≈ 19.2 to 192 µM) |  |
| COc1cnc2ccc(=O)n(CCN[C@H]3CC[C@H]4[C@@H](C3)OC(=O)N4c3ccc4c(n3)NC(=O)CO4)c2c1 [Compound 30, 1-(2-{[(3aS,6S,7aR)-2-oxo-3-{3-oxo-2H,3H,4H-pyrido[3,2-b][1,4]oxazin-6-yl}-octahydro-1,3-benzoxazol-6-yl]amino}ethyl)-7-methoxy-1,2-dihydro-1,5-naphthyridin-2-one] | < 1 µg/mL | 1 to 10 µg/mL (≈ 1.97 to 19.7 µM) | 1 to 10 µg/mL (≈ 1.97 to 19.7 µM) | < 1 µg/mL | < 1 µg/mL | < 1 µg/mL | < 1 µg/mL | < 1 µg/mL | < 1 µg/mL | < 1 µg/mL | < 1 µg/mL | 2 fold | 2 fold | > 100 µg/mL |  |
| COc1cnnc(-c2cccc(CN[C@@H]3CC[C@@H]4[C@@H](C3)OC(=O)N4c3ccc4c(n3)NC(=O)CO4)c2O)c1 [Compound 72, (3aR,6R,7aR)-6-({[2-hydroxy-3-(5-methoxypyridazin-3-yl)phenyl]methyl}amino)-3-{3-oxo-2H,3H,4H-pyrido[3,2-b][1,4]oxazin-6-yl}-octahydro-1,3-benzoxazol-2-one] | < 1 µg/mL | < 1 µg/mL | 1 to 10 µg/mL (≈ 1.93 to 19.3 µM) | < 1 µg/mL | < 1 µg/mL | 1 to 10 µg/mL (≈ 1.93 to 19.3 µM) | < 1 µg/mL | < 1 µg/mL | 1 to 10 µg/mL (≈ 1.93 to 19.3 µM) | < 1 µg/mL | 1 to 10 µg/mL (≈ 1.93 to 19.3 µM) | 0.5 fold | 0.5 fold | 10 to 100 µg/mL (≈ 19.3 to 193 µM) |  |
| COc1ccc2ncc(=O)n(CCN[C@H]3CCC4C(C3)OC(=O)N4c3ccc4c(n3)NC(=O)CO4)c2n1 (stereo in doubt) [Compound 45, (3aS,6S,7aS)-6-[(2-{6-methoxy-3-oxo-3H,4H-pyrido[2,3-b]pyrazin-4-yl}ethyl)amino]-3-{3-oxo-2H,3H,4H-pyrido[3,2-b][1,4]oxazin-6-yl}-octahydro-1,3-benzoxazol-2-one] | < 1 µg/mL | < 1 µg/mL | < 1 µg/mL | < 1 µg/mL | < 1 µg/mL | < 1 µg/mL | < 1 µg/mL | < 1 µg/mL | 1 to 10 µg/mL (≈ 1.97 to 19.7 µM) | < 1 µg/mL | < 1 µg/mL | 2 fold | 1 fold | 10 to 100 µg/mL (≈ 19.7 to 197 µM) |  |
| N#Cc1ccc2ncc(=O)n(CCN[C@H]3CC[C@H]4[C@@H](C3)OC(=O)N4c3ccc4c(n3)NC(=O)CO4)c2c1 [Compound 31, 4-(2-{[(3aS,6S,7aR)-2-oxo-3-{3-oxo-2H,3H,4H-pyrido[3,2-b][1,4]oxazin-6-yl}-octahydro-1,3-benzoxazol-6-yl]amino}ethyl)-3-oxo-3,4-dihydroquinoxaline-6-carbonitrile] | < 1 µg/mL | < 1 µg/mL | < 1 µg/mL | < 1 µg/mL | < 1 µg/mL | 1 to 10 µg/mL (≈ 1.99 to 19.9 µM) | < 1 µg/mL | < 1 µg/mL | 1 to 10 µg/mL (≈ 1.99 to 19.9 µM) | < 1 µg/mL | < 1 µg/mL | 1 fold | 2 fold | > 100 µg/mL |  |
| 1-[(2S)-3-{[(3aS,6S,7aS)-2-oxo-3-{3-oxo-2H,3H,4H-pyrido[3,2-b][1,4]oxazin-6-yl}-octahydro-1,3-benzoxazol-6-yl]amino}-2-hydroxypropyl]-7-fluoro-1,2-dihydroquinoxalin-2-one & 1-[(2R)-3-{[(3aS,6S,7aS)-2-oxo-3-{3-oxo-2H,3H,4H-pyrido[3,2-b][1,4]oxazin-6-yl}-octahydro-1,3-benzoxazol-6-yl]amino}-2-hydroxypropyl]-7-fluoro-1,2-dihydroquinoxalin-2-one [Compound 95] |  |  |  |  |  |  |  |  |  |  |  |  |  |  | MIC, Ab NCTC 13420 [1]: A (an MIC (in μg/mL) of less or equal to 1 is assigned the letter A); MIC, Ab ATCC 19606 [2]: B (a MIC of from 1 to 10 is assigned the letter B); MIC, Ecl NCTC 13406 [3]: B (a MIC of from 1 to 10 is assigned the letter B); MIC, Ec ATCC 25922 [4]: A (an MIC (in μg/mL) of less or equal to 1 is assigned the letter A); MIC, Ec ATCC BAA 2452 (E. coli ATCC BAA-2452): A (an MIC (in μg/mL) of less or equal to 1 is assigned the letter A); MIC, Ec NCTC 13476 (E. coli NCTC 13476): A (an MIC (in μg/mL) of less or equal to 1 is assigned the letter A); MIC, Ec MG1655 WT (E. coli MG1655; Escherichia coli MG1655 WT, 16-20 h, mode of three independent experiments): A (an MIC (in μg/mL) of less or equal to 1 is assigned the letter A); MIC, Hi ATCC 49247 [5]: A (an MIC (in μg/mL) of less or equal to 1 is assigned the letter A); MIC, Pa ATCC 27853 [6]: B (a MIC of from 1 to 10 is assigned the letter B); MIC, Sa ATCC 29213 [7]: A (an MIC (in μg/mL) of less or equal to 1 is assigned the letter A); MIC, Sp ATCC 49619 [8]: A (an MIC (in μg/mL) of less or equal to 1 is assigned the letter A); Fold increase in MIC, E. coli MG1655 S83L (E. coli MG1655 S83L): 0.5 fold; Fold increase in MIC, E. coli MG1655 D87G (E. coli MG1655 D87G): 1 fold; IC50 (μg/mL) HepG2 ([9]; HepG2 cell viability, 24 h, CellTiter-Glo): A (an IC50 of over 100 is assigned the letter A) |

Source: patent publication US10487093B2, “Heterocyclic compounds, in particular 2-oxo-4,4,5,5,6,6,7,7-octahydrobenzoxazole derivatives, and their use as antibacterial compounds” (priority 2016, dated 2019)
